Experimental data from US9603833B2, “Benzene or thiophene derivative and use thereof as VAP-1 inhibitor” (R-Tech Ueno, Ltd., priority 2008, dated 2017).
pIC50: −log10 of the molar value. Where a name gives a salt, the structure may show the parent alone.

Key:
[1] = molecular target: human VAP-1 enzyme (SSAO) (Homo sapiens (Human), UniProt Q16853); assay: Inhibitory effect on human VAP-1 enzyme (SSAO), radiochemical-enzyme assay using 14C-benzylamine; format: biochemical; settings: human VAP-1 expressed in a cell, cell extract; 14C-benzylamine 1×10^−5 mol/L; 37° C., 2 hours
Sequence of human VAP-1 enzyme (SSAO) (Q16853 whole entry): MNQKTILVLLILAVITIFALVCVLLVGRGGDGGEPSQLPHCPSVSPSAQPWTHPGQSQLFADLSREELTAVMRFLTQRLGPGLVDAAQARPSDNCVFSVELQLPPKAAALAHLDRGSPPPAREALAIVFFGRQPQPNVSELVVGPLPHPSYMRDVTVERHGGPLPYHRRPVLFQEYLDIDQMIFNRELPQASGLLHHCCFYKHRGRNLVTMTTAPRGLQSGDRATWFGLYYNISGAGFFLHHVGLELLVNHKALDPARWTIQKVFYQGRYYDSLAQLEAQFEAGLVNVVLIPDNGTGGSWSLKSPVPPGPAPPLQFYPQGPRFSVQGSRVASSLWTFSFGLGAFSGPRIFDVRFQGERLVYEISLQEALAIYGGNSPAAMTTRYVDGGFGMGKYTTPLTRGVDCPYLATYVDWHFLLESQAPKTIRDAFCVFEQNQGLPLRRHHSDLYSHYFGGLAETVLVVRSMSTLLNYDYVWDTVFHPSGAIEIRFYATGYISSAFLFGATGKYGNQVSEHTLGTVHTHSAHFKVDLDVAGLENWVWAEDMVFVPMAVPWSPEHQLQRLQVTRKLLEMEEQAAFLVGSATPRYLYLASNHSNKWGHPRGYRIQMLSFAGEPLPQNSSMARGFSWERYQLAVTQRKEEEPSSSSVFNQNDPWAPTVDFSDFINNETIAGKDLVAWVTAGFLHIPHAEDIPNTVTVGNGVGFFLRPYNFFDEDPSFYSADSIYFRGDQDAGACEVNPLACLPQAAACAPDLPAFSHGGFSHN
Experimental: (§1) The compounds of the present invention obtained in Production Examples were examined for the inhibitory effect on human and rat VAP-1 enzyme (SSAO) by the following method.
(§2) The VAP-1 enzyme (SSAO) activity in both human and rat was measured by a radiochemical-enzyme assay using ^14C-benzylamine as an artificial substrate. Human or rat VAP-1 was cloned from the cDNA library and expressed in a cell. The cell extract was preincubated with a test compound solution (final concentration 1×10^−7-1×10^−10 mol/L) at room temperature for 20 minutes. Then, ^14C-benzylamine (final concentration 1×10^−5 mol/L) was added, and the mixture was incubated at a final volume of 200 μL at 37° C. for 2 hours. The enzyme reaction was stopped by addition of 2 mol/L (200 μL) citric acid. The oxidation product was extracted with 1 mL toluene/ethyl acetate (1:1), and the radioactivity thereof was measured by a liquid scintillation counter.

rat VAP-1 enzyme (SSAO) = rat VAP-1 enzyme (SSAO) (Rattus norvegicus (Rat), UniProt O08590); assay: Inhibitory effect on rat VAP-1 enzyme (SSAO), radiochemical-enzyme assay using 14C-benzylamine; format: biochemical; settings: rat VAP-1 expressed in a cell, cell extract; 14C-benzylamine 1×10^−5 mol/L; 37° C., 2 hours
Sequence of rat VAP-1 enzyme (SSAO) (O08590 whole entry): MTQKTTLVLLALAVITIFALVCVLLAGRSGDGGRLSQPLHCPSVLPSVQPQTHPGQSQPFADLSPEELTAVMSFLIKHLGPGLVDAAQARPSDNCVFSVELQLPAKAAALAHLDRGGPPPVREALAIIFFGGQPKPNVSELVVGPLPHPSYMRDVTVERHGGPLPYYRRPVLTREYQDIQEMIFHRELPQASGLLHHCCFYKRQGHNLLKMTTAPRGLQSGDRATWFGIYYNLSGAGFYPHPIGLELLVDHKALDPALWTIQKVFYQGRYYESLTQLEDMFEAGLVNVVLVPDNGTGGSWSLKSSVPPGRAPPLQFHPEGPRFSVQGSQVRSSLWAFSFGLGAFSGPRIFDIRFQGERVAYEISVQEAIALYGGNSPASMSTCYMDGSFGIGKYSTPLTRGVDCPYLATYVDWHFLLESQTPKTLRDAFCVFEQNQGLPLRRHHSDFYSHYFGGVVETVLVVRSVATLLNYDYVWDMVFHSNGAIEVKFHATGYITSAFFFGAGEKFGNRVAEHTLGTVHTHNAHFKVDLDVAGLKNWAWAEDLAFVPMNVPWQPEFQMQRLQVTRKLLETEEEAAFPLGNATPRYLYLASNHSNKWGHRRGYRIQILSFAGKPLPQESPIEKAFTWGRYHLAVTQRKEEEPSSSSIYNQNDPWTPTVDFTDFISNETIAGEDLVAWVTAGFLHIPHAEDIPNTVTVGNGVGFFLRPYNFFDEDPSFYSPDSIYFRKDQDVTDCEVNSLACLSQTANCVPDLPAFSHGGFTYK
Experimental: as §1, §2

NNC(=O)Cc1ccc(CCc2ccc(N3CCOCC3)nc2)cc1 [Production Example 12, {4-[2-(6-morpholin-4-ylpyridin-3-yl)ethyl]phenyl}acetohydrazide dihydrochloride]
pIC50 [1]: 7.68
pIC50 (rat VAP-1 enzyme (SSAO)): 8.96

NNC(=O)Cc1ccc(CCc2csc(C3CCNCC3)n2)cc1 [Production Example 20, 2-{4-[2-(2-piperidin-4-yl-1,3-thiazol-4-yl)ethyl]phenyl}acetohydrazide dihydrochloride]
pIC50 [1]: 7.63
pIC50 (rat VAP-1 enzyme (SSAO)): 8.29

CCN(CC)c1ccc(CCc2ccc(CC(=O)NN)cc2)cc1 [Production Example 30, 2-(4-{2-[4-(diethylamino)phenyl]ethyl}phenyl)acetohydrazide dihydrochloride]
pIC50 [1]: 7.89
pIC50 (rat VAP-1 enzyme (SSAO)): 8.66

NNC(=O)Cc1ccc(CCc2ccc(N3CCCC3)nc2)cc1 [Production Example 44, 2-{4-[2-(6-pyrrolidin-1-ylpyridin-3-yl)ethyl]phenyl}acetohydrazide trihydrochloride]
pIC50 [1]: 7.74
pIC50 (rat VAP-1 enzyme (SSAO)): 8.27

NNC(=O)Cc1ccc(CCc2ccc(N3CCCCC3)nc2)cc1 [Production Example 45, 2-{4-[2-(6-piperidin-1-ylpyridin-3-yl)ethyl]phenyl}acetohydrazide trihydrochloride]
pIC50 [1]: 7.76
pIC50 (rat VAP-1 enzyme (SSAO)): 8.92

CC(=O)N1CCN(c2ccc(CCc3ccc(CC(=O)NN)cc3)cn2)CC1 [Production Example 47, 2-(4-{2-[6-(4-acetylpiperazin-1-yl)pyridin-3-yl]ethyl}phenyl)acetohydrazide trihydrochloride]
pIC50 [1]: 7.79
pIC50 (rat VAP-1 enzyme (SSAO)): 8.44

NNC(=O)Cc1ccc(CCc2ccc(N3CCNCC3)cc2C(F)(F)F)cc1 [Production Example 59, 2-(4-{2-[4-piperazin-1-yl-2-(trifluoromethyl)phenyl]ethyl}phenyl)acetohydrazide trihydrochloride]
pIC50 [1]: 7.95
pIC50 (rat VAP-1 enzyme (SSAO)): 8.21

NNC(=O)Cc1ccc(CCc2ccc(CN3CCOCC3)cc2)cc1 [Production Example 70, 2-(4-{2-[4-(morpholin-4-ylmethyl)phenyl]ethyl}phenyl)acetohydrazide dihydrochloride]
pIC50 [1]: 7.75
pIC50 (rat VAP-1 enzyme (SSAO)): 8.89

NNC(=O)Cc1ccc(CCc2ccc(N3CCNCC3)s2)cc1 [Production Example 74, 2-{4-[2-(5-piperazin-1-ylthiophen-2-yl)ethyl]phenyl}acetohydrazide trihydrochloride]
pIC50 [1]: 7.91
pIC50 (rat VAP-1 enzyme (SSAO)): 8.39

CCN(CCN)c1ccc(CCc2ccc(CC(=O)NN)cc2)cc1 [Production Example 83, 2-[4-(2-{4-[(2-aminoethyl)(ethyl)amino]phenyl}ethyl)phenyl]acetohydrazide trihydrochloride]
pIC50 [1]: 7.69
pIC50 (rat VAP-1 enzyme (SSAO)): 8.24

CCN(CC)c1ccc(CCc2ccc(CC(=O)NN)cc2)cn1 [Production Example 85, 2-(4-{2-[6-(diethylamino)pyridin-3-yl]ethyl}phenyl)acetohydrazide trihydrochloride]
pIC50 [1]: 7.80
pIC50 (rat VAP-1 enzyme (SSAO)): 8.72

NNC(=O)Cc1ccc(CCc2ccc(N3CCNCC3)cn2)cc1 [Production Example 86, 2-{4-[2-(5-piperazin-1-ylpyridin-2-yl)ethyl]phenyl}acetohydrazide tetrahydrochloride]
pIC50 [1]: 8.01
pIC50 (rat VAP-1 enzyme (SSAO)): 9.00

CCN(CC)c1ccc(CCc2ccc(CC(=O)NN)cc2)nc1 [Production Example 88, 2-(4-{2-[5-(diethylamino)pyridin-2-yl]ethyl}phenyl)acetohydrazide trihydrochloride]
pIC50 [1]: 7.99
pIC50 (rat VAP-1 enzyme (SSAO)): 9.05

CCN(C)c1ccc(CCc2ccc(CC(=O)NN)cc2)cn1 [Production Example 89, 2-[4-(2-{6-[ethyl(methyl)amino]pyridin-3-yl}ethyl)phenyl]acetohydrazide trihydrochloride]
pIC50 [1]: 7.81
pIC50 (rat VAP-1 enzyme (SSAO)): 9.05

CCCN(C)c1ccc(CCc2ccc(CC(=O)NN)cc2)cn1 [Production Example 90, 2-[4-(2-{6-[methyl(propyl)amino]pyridin-3-yl}ethyl)phenyl]acetohydrazide trihydrochloride]
pIC50 [1]: 7.66
pIC50 (rat VAP-1 enzyme (SSAO)): 8.85

CCCN(CCC)c1ccc(CCc2ccc(CC(=O)NN)cc2)cn1 [Production Example 92, 2-(4-{2-[6-(dipropylamino)pyridin-3-yl]ethyl}phenyl)acetohydrazide trihydrochloride]
pIC50 [1]: 7.69
pIC50 (rat VAP-1 enzyme (SSAO)): 9.10

NNC(=O)Cc1ccc(CCc2csc(N3CCNCC3)n2)cc1 [Production Example 95, 2-{4-[2-(2-piperazin-1-yl-1,3-thiazol-4-yl)ethyl]phenyl}acetohydrazide dihydrochloride]
pIC50 [1]: 8.20
pIC50 (rat VAP-1 enzyme (SSAO)): 8.46

CC(=O)N1CCN(c2ccc(CCc3ccc(CC(=O)NN)cc3)nn2)CC1 [Production Example 99, 2-(4-{2-[6-(4-acetylpiperazin-1-yl)pyridazin-3-yl]ethyl}phenyl)acetohydrazide trihydrochloride]
pIC50 [1]: 7.87
pIC50 (rat VAP-1 enzyme (SSAO)): 8.60

CC(=O)N1CCN(c2cnc(CCc3ccc(CC(=O)NN)cc3)cn2)CC1 [Production Example 101, 2-(4-{2-[5-(4-acetylpiperazin-1-yl)pyrazin-2-yl]ethyl}phenyl)acetohydrazide trihydrochloride]
pIC50 [1]: 8.47
pIC50 (rat VAP-1 enzyme (SSAO)): 8.68

NNC(=O)Cc1ccc(CCc2cncc(N3CCNCC3)c2)cc1 [Production Example 102, 2-{4-[2-(5-piperazin-1-ylpyridin-3-yl)ethyl]phenyl}acetohydrazide tetrahydrochloride]
pIC50 [1]: 7.71
pIC50 (rat VAP-1 enzyme (SSAO)): 8.03

NNC(=O)Cc1ccc(CCc2cc(N3CCNCC3)ncn2)cc1 [Production Example 106, 2-{4-[2-(6-piperazin-1-ylpyrimidin-4-yl)ethyl]phenyl}acetohydrazide tetrahydrochloride]
pIC50 [1]: 7.72
pIC50 (rat VAP-1 enzyme (SSAO)): 8.12

CC(=O)N1CCN(c2ccc(CCc3ccc(COC(=O)NN)cc3)nc2)CC1 [Production Example 108, 4-{2-[5-(4-acetylpiperazin-1-yl)pyridin-2-yl]ethyl}benzyl hydrazinecarboxylate trihydrochloride]
pIC50 [1]: 9.05
pIC50 (rat VAP-1 enzyme (SSAO)): 9.10

CC(=O)N1CCN(c2ccc(CCc3ccc(CNC(=O)NN)cc3)nc2)CC1 [Production Example 109, N-(4-{2-[5-(4-acetylpiperazin-1-yl)pyridin-2-yl]ethyl}benzyl)hydrazinecarboxamide trihydrochloride]
pIC50 [1]: 8.43
pIC50 (rat VAP-1 enzyme (SSAO)): 8.85

CC(=O)N1CCN(c2ccc(CCc3ccc(OC(=O)NN)cc3)nc2)CC1 [Production Example 110, 4-{2-[5-(4-acetylpiperazin-1-yl)pyridin-2-yl]ethyl}phenyl hydrazinecarboxylate trihydrochloride]
pIC50 [1]: 8.46
pIC50 (rat VAP-1 enzyme (SSAO)): 8.80

CC(=O)N1CCN(c2ccc(CCc3cccc(COC(=O)NN)c3)nc2)CC1 [Production Example 111, 3-{2-[5-(4-acetylpiperazin-1-yl)pyridin-2-yl]ethyl}benzyl hydrazinecarboxylate trihydrochloride]
pIC50 [1]: 9.30
pIC50 (rat VAP-1 enzyme (SSAO)): 9.40

CC(=O)N1CCN(c2ccc(CCc3cccc(CNC(=O)NN)c3)nc2)CC1 [Production Example 112, N-(3-{2-[5-(4-acetylpiperazin-1-yl)pyridin-2-yl]ethyl}benzyl)hydrazinecarboxamide trihydrochloride]
pIC50 [1]: 9.15
pIC50 (rat VAP-1 enzyme (SSAO)): 9.15
